Like-named read-outs stand apart in the source and are kept apart here.
What was measured:
[1] = tested on: Lactobacilli and S. thermophilus; experiment: Growth on single carbohydrates, summary for Lactobacilli and S. thermophilus; type: cell-based; conditions: summary in words of Tables 7 and 8
[2] = tested on: Bifidobacterium lactis BI-04; type: cell-based; conditions: 1 w/v-% carbohydrate, 37° C.

Structure (SMILES): OC[C@H]1O[C@H](O)[C@H](O)[C@@H](O)[C@@H]1O [Glucose, Alpha-D-Glucose]
- fermentation of the carbohydrate by Lactobacilli and S. thermophilus [1]: all these bacteria fermented with glucose
- absorbance (OD 600 nm) ([2]; Table 3 test, time 0 h): 0.345
- absorbance (OD 600 nm) ([2]; Table 3 test, time 0.5 h): 0.3508
- absorbance (OD 600 nm) ([2]; Table 3 test, time 1 h): 0.3557
- absorbance (OD 600 nm) ([2]; Table 3 test, time 1.5 h): 0.3612
- absorbance (OD 600 nm) ([2]; Table 3 test, time 2 h): 0.366
- absorbance (OD 600 nm) ([2]; Table 3 test, time 2.5 h): 0.3717
- absorbance (OD 600 nm) ([2]; Table 3 test, time 3 h): 0.3794
- absorbance (OD 600 nm) ([2]; Table 3 test, time 3.5 h): 0.3884
- absorbance (OD 600 nm) ([2]; Table 3 test, time 4 h): 0.4001
- absorbance (OD 600 nm) ([2]; Table 3 test, time 4.5 h): 0.4149
- absorbance (OD 600 nm) ([2]; Table 3 test, time 5 h): 0.4363
- absorbance (OD 600 nm) ([2]; Table 3 test, time 5.5 h): 0.4576
- absorbance (OD 600 nm) ([2]; Table 3 test, time 6 h): 0.4843
- absorbance (OD 600 nm) ([2]; Table 3 test, time 6.5 h): 0.5156
- absorbance (OD 600 nm) ([2]; Table 3 test, time 7 h): 0.549
- absorbance (OD 600 nm) ([2]; Table 3 test, time 7.5 h): 0.5855
- absorbance (OD 600 nm) ([2]; Table 3 test, time 8 h): 0.6269
- absorbance (OD 600 nm) ([2]; Table 3 test, time 8.5 h): 0.6688
- absorbance (OD 600 nm) ([2]; Table 3 test, time 9 h): 0.7126
- absorbance (OD 600 nm) ([2]; Table 3 test, time 9.5 h): 0.7528
- absorbance (OD 600 nm) ([2]; Table 3 test, time 10 h): 0.7957
- absorbance (OD 600 nm) ([2]; Table 3 test, time 10.5 h): 0.8301
- absorbance (OD 600 nm) ([2]; Table 3 test, time 11 h): 0.8645
- absorbance (OD 600 nm) ([2]; Table 3 test, time 11.5 h): 0.897
- absorbance (OD 600 nm) ([2]; Table 3 test, time 12 h): 0.927
- absorbance (OD 600 nm) ([2]; Table 3 test, time 12.5 h): 0.9517
- absorbance (OD 600 nm) ([2]; Table 3 test, time 13 h): 0.9725
- absorbance (OD 600 nm) ([2]; Table 3 test, time 13.5 h): 0.9899
- absorbance (OD 600 nm) ([2]; Table 3 test, time 14 h): 1.0031
- absorbance (OD 600 nm) ([2]; Table 3 test, time 14.5 h): 1.0267
- absorbance (OD 600 nm) ([2]; Table 3 test, time 15 h): 1.0406
- absorbance (OD 600 nm) ([2]; Table 3 test, time 15.5 h): 1.05
- absorbance (OD 600 nm) ([2]; Table 3 test, time 16 h): 1.063
- absorbance (OD 600 nm) ([2]; Table 3 test, time 16.5 h): 1.0769
- absorbance (OD 600 nm) ([2]; Table 3 test, time 17 h): 1.0841
- absorbance (OD 600 nm) ([2]; Table 3 test, time 17.5 h): 1.1062
- absorbance (OD 600 nm) ([2]; Table 3 test, time 18 h): 1.1201
- absorbance (OD 600 nm) ([2]; Table 3 test, time 18.5 h): 1.1494
- absorbance (OD 600 nm) ([2]; Table 3 test, time 19 h): 1.1729
- absorbance (OD 600 nm) ([2]; Table 3 test, time 19.5 h): 1.1942
- absorbance (OD 600 nm) ([2]; Table 3 test, time 20 h): 1.2233
- absorbance (OD 600 nm) ([2]; Table 3 test, time 20.5 h): 1.2352
- absorbance (OD 600 nm) ([2]; Table 3 test, time 21 h): 1.27
- absorbance (OD 600 nm) ([2]; Table 3 test, time 21.5 h): 1.2882
- absorbance (OD 600 nm) ([2]; Table 3 test, time 22 h): 1.2935
- absorbance (OD 600 nm) ([2]; Table 3 test, time 22.5 h): 1.312
- absorbance (OD 600 nm) ([2]; Table 3 test, time 23 h): 1.3311
- absorbance (OD 600 nm) ([2]; Table 3 test, time 23.5 h): 1.3389
- absorbance (OD 600 nm) ([2]; Table 3 test, time 24 h): 1.3477
- absorbance (OD 600 nm) ([2]; Table 4 further test, time 0 h): 0.358
- absorbance (OD 600 nm) ([2]; Table 4 further test, time 0.5 h): 0.3615
- absorbance (OD 600 nm) ([2]; Table 4 further test, time 1 h): 0.3671
- absorbance (OD 600 nm) ([2]; Table 4 further test, time 1.5 h): 0.3772
- absorbance (OD 600 nm) ([2]; Table 4 further test, time 2 h): 0.3899
- absorbance (OD 600 nm) ([2]; Table 4 further test, time 2.5 h): 0.407
- absorbance (OD 600 nm) ([2]; Table 4 further test, time 3 h): 0.4301
- absorbance (OD 600 nm) ([2]; Table 4 further test, time 3.5 h): 0.4552
- absorbance (OD 600 nm) ([2]; Table 4 further test, time 4 h): 0.4845
- absorbance (OD 600 nm) ([2]; Table 4 further test, time 4.5 h): 0.5215
- absorbance (OD 600 nm) ([2]; Table 4 further test, time 5 h): 0.5712
- absorbance (OD 600 nm) ([2]; Table 4 further test, time 5.5 h): 0.6208
- absorbance (OD 600 nm) ([2]; Table 4 further test, time 6 h): 0.6769
- absorbance (OD 600 nm) ([2]; Table 4 further test, time 6.5 h): 0.7519
- absorbance (OD 600 nm) ([2]; Table 4 further test, time 7 h): 0.824
- absorbance (OD 600 nm) ([2]; Table 4 further test, time 7.5 h): 0.8944
- absorbance (OD 600 nm) ([2]; Table 4 further test, time 8 h): 0.9606
- absorbance (OD 600 nm) ([2]; Table 4 further test, time 8.5 h): 1.0277
- absorbance (OD 600 nm) ([2]; Table 4 further test, time 9 h): 1.0871
- absorbance (OD 600 nm) ([2]; Table 4 further test, time 9.5 h): 1.1209
- absorbance (OD 600 nm) ([2]; Table 4 further test, time 10 h): 1.1556
- absorbance (OD 600 nm) ([2]; Table 4 further test, time 10.5 h): 1.189
- absorbance (OD 600 nm) ([2]; Table 4 further test, time 11 h): 1.2217
- absorbance (OD 600 nm) ([2]; Table 4 further test, time 11.5 h): 1.2528
- absorbance (OD 600 nm) ([2]; Table 4 further test, time 12 h): 1.2826
- absorbance (OD 600 nm) ([2]; Table 4 further test, time 12.5 h): 1.3101
- absorbance (OD 600 nm) ([2]; Table 4 further test, time 13 h): 1.3368
- absorbance (OD 600 nm) ([2]; Table 4 further test, time 13.5 h): 1.3586
- absorbance (OD 600 nm) ([2]; Table 4 further test, time 14 h): 1.3745
- absorbance (OD 600 nm) ([2]; Table 4 further test, time 14.5 h): 1.388
- absorbance (OD 600 nm) ([2]; Table 4 further test, time 15 h): 1.4068
- absorbance (OD 600 nm) ([2]; Table 4 further test, time 15.5 h): 1.4166
- absorbance (OD 600 nm) ([2]; Table 4 further test, time 16 h): 1.43
- absorbance (OD 600 nm) ([2]; Table 4 further test, time 16.5 h): 1.4441
- absorbance (OD 600 nm) ([2]; Table 4 further test, time 17 h): 1.4486
- absorbance (OD 600 nm) ([2]; Table 4 further test, time 17.5 h): 1.4526
- absorbance (OD 600 nm) ([2]; Table 4 further test, time 18 h): 1.4654
- absorbance (OD 600 nm) ([2]; Table 4 further test, time 18.5 h): 1.4724
- absorbance (OD 600 nm) ([2]; Table 4 further test, time 19 h): 1.472
- absorbance (OD 600 nm) ([2]; Table 4 further test, time 19.5 h): 1.4796
- absorbance (OD 600 nm) ([2]; Table 4 further test, time 20 h): 1.4864
- absorbance (OD 600 nm) ([2]; Table 4 further test, time 20.5 h): 1.491
- absorbance (OD 600 nm) ([2]; Table 4 further test, time 21 h): 1.4946
- absorbance (OD 600 nm) ([2]; Table 4 further test, time 21.5 h): 1.4988
- absorbance (OD 600 nm) ([2]; Table 4 further test, time 22 h): 1.5015
- absorbance (OD 600 nm) ([2]; Table 4 further test, time 22.5 h): 1.5046
- absorbance (OD 600 nm) ([2]; Table 4 further test, time 23 h): 1.5061
- absorbance (OD 600 nm) ([2]; Table 4 further test, time 23.5 h): 1.5092
- absorbance (OD 600 nm) ([2]; Table 4 further test, time 24 h): 1.5092
